Source: US8415285B2, “Composition for the prevention or removal of insoluble salt deposits” (Ecover Coordination Center N.V., priority 2010, dated 2013)
Read-outs that look alike come from different tables or passages of the source. Blank lines part the entries; values can stand above or below the molecule they belong to.

Assays:
[1] = footnote b: as % anhydrous at 25° C.; cited from earlier work
[2] = cited from earlier work
[3] = Descaling efficiency upon short exposure, weight loss of marble plates (IKW protocol); conditions: for Average weight loss (g), plates: Example 1, 5% active matter acid solution, 10 seconds immersion + 10 minutes, five plates; for Weight difference plates: Example 3, short contact; for Weight loss plates: Example 4, acid levels 0, 1.5 or 3, solutions prepared 20 hours prior
Procedure: SÖFW-journal, 120, Jahrgang 13:94) for their descaling efficiency upon short exposure.
For each product, five oven-dry marble plates (Carrara marble, 75×150×5 mm, bought at Van Houten Malle) are weighted on a high precision balance and subsequently completely immersed during 10 seconds in a glass beaker holding 950 milliliter of a 5% active matter acid solution. The plates are then removed from the liquor, and put in upright position for 10 minutes during which the acid is allowed for further action. […] The weight loss due to the exposure to the acid is used as a measure for its descaling performance.
(§1) Solutions were allowed to stand until complete dissolution of the lactide before the descaling test was started.
(§2) The required volumes for filling the beakers were prepared as 3% active matter solutions, 20 hours prior to the test.

[4] = Descaling efficiency upon prolonged contact, weight loss of immersed marble blocks (IPP protocol); conditions: for Average weight loss (g), blocks: Example 2, 24 hours immersion in the acid solution, duplicate; for Weight loss blocks: Example 4, acid levels 0, 1.5 or 3
Procedure: as §1, §2

[5] = labeling according to EU legislation; cited from earlier work
[6] = Dissolution and pH development of lactide in water; assay type: physicochemical
Excerpt: Slow-release lactide is commercially available from the company Galactic, Belgium.

[7] = Descaling efficiency upon prolonged contact, weight loss of immersed marble blocks (IPP protocol); conditions: Example 3, 5% solution
[8] = cited from earlier work; remark: listed apart in the source

SMILES: O=C(O)CC(O)C(=O)O (stereo not drawn) [Malic acid]
Solubility calcium salt as % anhydrous at 25° C. [1]: 0.8%^b
Solubility water 20° C. ([2]; pH 7, 20° C.): >80%
Average weight loss (g), plates [3]: 0.1457 g
Average weight loss (g), blocks [4]: 8.735 g
label [5]: Xn

Time for complete dissolution ([6]; room temperature, while stirring): at least 3 hours
SMILES: CC1OC(=O)C(C)OC1=O (stereo not drawn) [Lactide, 3,6-Dimethyl-1,4-dioxane-2,5-dione]
Solubility water 20° C. ([2]; pH 7, 20° C.): Insol.^a
Weight difference plates ([3]; 3% solution): 0.1129 g
Weight difference plates ([3]; 5% solution): 0.1365 g
Weight difference blocks ([4]; Example 3, 3% solution, prolonged contact): 2.9844 g
Weight difference blocks [7]: 6.0445 g
label [5]: Xi

SMILES: O=C(O)CC(=O)O [malonic]
label [5]: Xn

SMILES: O=C(O)CC(O)(CC(=O)O)C(=O)O [Citric acid]
Average weight loss (g), plates [3]: 0.105 g
Weight difference plates ([3]; 5% solution): 0.0782 g
Weight loss plates [3]: 0.05778 g
Average weight loss (g), blocks [4]: 3.8461 g
Weight loss blocks ([4]; prolonged contact): 2.2648 g
Weight difference blocks [7]: 3.3186 g

SMILES: O=CO [formic]
label [5]: C, Xn

SMILES: O=C(O)CCC(=O)O [Succinic acid]
Average weight loss (g), plates [3]: 0.1376 g
Weight difference plates ([3]; 5% solution): 0.0899 g
Weight loss plates [3]: 0.08734 g
Average weight loss (g), blocks [4]: 9.304 g
Weight loss blocks ([4]; prolonged contact): 4.705 g
Weight difference blocks [7]: 7.2479 g
label [5]: C, Xn

SMILES: NS(=O)(=O)O [sulfamic]
pKa (first value) [8]: 0.1
label [5]: C, Xn, N

SMILES: O=C(O)CCCC(=O)O [glutaric]
Solubility water 20° C. ([2]; pH 7, 20° C.): 50%
label [5]: Xi

pH of 0.1 w/v % solution after 5 minutes ([6]; demineralized water, 25° C., 5 minutes): 3.7
pH of 0.1 w/v % solution after 10 minutes ([6]; demineralized water, 25° C., 10 minutes): 3.2
pH of 0.1 w/v % solution after 120 minutes ([6]; demineralized water, 25° C., 120 minutes): 2.5
SMILES: CC1OC(=O)C(C)OC1=O (stereo not drawn) [slow-release lactide]

SMILES: O=C(O)CO [Glycolic acid]
Average weight loss (g), plates [3]: 0.1629 g
Weight loss plates [3]: 0.1115 g
Average weight loss (g), blocks [4]: 2.629 g
Weight loss blocks ([4]; prolonged contact): 4.2873 g
label [5]: C, Xn

SMILES: O=C(O)[C@H](O)[C@@H](O)[C@H](O)[C@H](O)CO [gluconic]
Solubility water 20° C. ([2]; pH 7): >50%
label [5]: Xn

SMILES: O=C(O)/C=C\C(=O)O [maleic]
Solubility water 20° C. ([2]; pH 7): >40%

SMILES: O=C(O)/C=C/C(=O)O [fumaric]
Solubility water 20° C. ([2]; pH 7): 64%

SMILES: CC(=O)O [Acetic]
label [5]: C, Xn

SMILES: CC(O)C(=O)O (stereo not drawn) [Lactic acid]
Average weight loss (g), plates [3]: 0.1278 g
Weight loss plates [3]: 0.09616 g
Average weight loss (g), blocks [4]: 9.06 g
Weight loss blocks ([4]; prolonged contact): 5.2176 g
label [5]: Xi

SMILES: O=C(O)C(=O)O [oxalic]
label [5]: C, Xn

SMILES: O=S(=O)(O)O [sulfuric]
label [5]: C, T
